How the values were obtained:
Type in all cases: in vivo
[1] = test system: Setaria viridis (SETVI); assay: Herbicidal pre-emergence action, SETVI
From the text: (§1) Seeds of mono- and dicotyledonous weed plants were sown in plastic pots (double sowings with one species of mono- and one species of dicotyledonous weed plants per pot), in sandy loam, and covered with soil. The compounds according to the invention, formulated in the form of wettable powders (WP) or as emulsifiable concentrates (EC), were applied to the surface of the covering soil as an aqueous suspension or as an emulsion, with the addition of 0.5% of an additive, at an application rate of 600 litres of water per hectare (converted). Following treatment, the pots were placed in a greenhouse and kept under optimum growth conditions for the test plants. The visual grading of the damage to the test plants is carried out after ca. 3 weeks in comparison to untreated controls (herbicidal effect in percent (%): 100% effect=plants have died, 0% effect=as control plants). Seeds of mono- and dicotyledonous weed plants were sown in plastic pots (double sowings with one species of mono- and one species of dicotyledonous weed plants per pot), in sandy loam, and covered with soil. The compounds according to the invention, formulated in the form of wettable powders (WP) or as emulsifiable concentrates (EC), were applied to the surface of the covering soil as an aqueous suspension or as an emulsion, with the addition of 0.5% of an additive, at an application rate of 600 litres of water per hectare (converted). Following treatment, the pots were placed in a greenhouse and kept under optimum growth conditions for the test plants. The visual grading of the damage to the test plants is carried out after ca. 3 weeks in comparison to untreated controls (herbicidal effect in percent (%): 100% effect=plants have died, 0% effect=as control plants).

[2] = test system: Abutilon theophrasti (ABUTH); assay: Herbicidal post-emergence action, ABUTH; conditions: 1280 g/ha, assessed visually after ca. 3 weeks vs untreated controls (Table B1)
From the text: (§2) Seeds of mono- and dicotyledonous weed plants were sown in plastic pots (double sowings with one species of mono- and one species of dicotyledonous weed plants per pot), in sandy loam, covered with soil and grown under controlled growth conditions. 2 to 3 weeks after sowing, the test plants were sprayed in the single-leaf stage. The compounds according to the invention, formulated in the form of wettable powders (WP) or as emulsifiable concentrates (EC), were sprayed onto the green plant parts as an aqueous suspension or as an emulsion, with the addition of 0.5% of an additive, at an application rate of 600 litres of water per hectare (converted). The test plants were placed in the greenhouse for ca. 3 weeks under optimum growth conditions, and then the effect of the preparations is assessed visually in comparison with untreated controls (herbicidal effect in percent (%): 100% effect=plants have died, 0% effect=as control plants).

[3] = test system: Kochia scoparia (KCHSC); assay: Herbicidal post-emergence action, KCHSC
From the text: as §2, with “plants).[…]” for “plants).”

[4] = test system: Digitaria sanguinalis (DIGSA); assay: Herbicidal pre-emergence action, DIGSA
From the text: as §1

[5] = test system: Veronica persica (VERPE); assay: Herbicidal pre-emergence action, VERPE
From the text: as §1

[6] = test system: Poa annua (POAAN); assay: Herbicidal pre-emergence action, POAAN
From the text: as §1

[7] = test system: Echinochloa crus-galli (ECHCG); assay: Herbicidal pre-emergence action, ECHCG
From the text: as §1

[8] = test system: Alopecurus myosuroides (ALOMY); assay: Herbicidal post-emergence action, ALOMY; conditions: 1280 g/ha, assessed visually after ca. 3 weeks vs untreated controls (Table B2)
From the text: as §2

[9] = test system: Alopecurus myosuroides (ALOMY); assay: Herbicidal pre-emergence action, ALOMY; conditions: 1280 g/ha, visual grading after ca. 3 weeks vs untreated controls (Table A12)
From the text: Seeds of mono- and dicotyledonous weed plants were sown in plastic pots (double sowings with one species of mono- and one species of dicotyledonous weed plants per pot), in sandy loam, and covered with soil. The compounds according to the invention, formulated in the form of wettable powders (WP) or as emulsifiable concentrates (EC), were applied to the surface of the covering soil as an aqueous suspension or as an emulsion, with the addition of 0.5% of an additive, at an application rate of 600 litres of water per hectare (converted). Following treatment, the pots were placed in a greenhouse and kept under optimum growth conditions for the test plants. The visual grading of the damage to the test plants is carried out after ca. 3 weeks in comparison to untreated controls (herbicidal effect in percent (%): 100% effect=plants have died, 0% effect=as control plants).

[10] = test system: Digitaria sanguinalis (DIGSA); assay: Herbicidal post-emergence action, DIGSA; conditions: 1280 g/ha, assessed visually after ca. 3 weeks vs untreated controls (Table B12)
From the text: as §2

[11] = 320 g/ha, visual grading after ca. 3 weeks vs untreated controls (Table C5)
[12] = 1280 g/ha, visual grading after ca. 3 weeks vs untreated controls (Table A8)
[13] = 320 g/ha, assessed visually after ca. 3 weeks vs untreated controls (Table D1)
[14] = 1280 g/ha, assessed visually after ca. 3 weeks vs untreated controls (Table B4)
[15] = 1280 g/ha, visual grading after ca. 3 weeks vs untreated controls (Table A2)
[16] = 320 g/ha, visual grading after ca. 3 weeks vs untreated controls (Table C7)
[17] = 1280 g/ha, visual grading after ca. 3 weeks vs untreated controls (Table A10)
[18] = 320 g/ha, visual grading after ca. 3 weeks vs untreated controls (Table C4)
[19] = 1280 g/ha, visual grading after ca. 3 weeks vs untreated controls (Table A7)
[20] = 1280 g/ha, visual grading after ca. 3 weeks vs untreated controls (Table A3)

SMILES	herbicidal effect in percent, SETVI [1, 11] [%]	herbicidal effect in percent, SETVI [1, 12] [%]	herbicidal effect in percent, ABUTH [2] [%]	herbicidal effect in percent, KCHSC [3, 13] [%]	herbicidal effect in percent, KCHSC [3, 14] [%]	herbicidal effect in percent, DIGSA [4, 15] [%]	herbicidal effect in percent, VERPE [5, 16] [%]	herbicidal effect in percent, VERPE [5, 17] [%]	herbicidal effect in percent, POAAN [6, 18] [%]	herbicidal effect in percent, POAAN [6, 19] [%]	herbicidal effect in percent, ECHCG [7, 20] [%]	herbicidal effect in percent, ALOMY [8] [%]	herbicidal effect in percent, DIGSA ([4]; 320 g/ha, visual grading after ca. 3 weeks vs untreated controls (Table C10)) [%]	herbicidal effect in percent, ALOMY [9] [%]	herbicidal effect in percent, ECHCG ([7]; 320 g/ha, visual grading after ca. 3 weeks vs untreated controls (Table C9)) [%]	herbicidal effect in percent, DIGSA [10] [%]
O=C(Nc1ncns1)c1c(C2CC2)ccnc1Cl [Example I-003, 2-chloro-4-cyclopropyl-N-(1,2,4-thiadiazol-5-yl)pyridine-3-carboxamide]	100	100	90	90	100	90	90	90	90	100	90					
O=C(Nc1ncns1)c1c(C2CC2)ccnc1F [Example I-005]	100	100		100	100	90	90	100	100	100	90	90	90	100	90	100
O=C(Nc1nc(Cl)ns1)c1c(C2CC2)ccnc1Cl [Example I-013]			90					90			90	90				

Source: patent publication US20240352010A1, “SUBSTITUTED 1,2,4-THIADIAZOLYL NICOTINAMIDES, SALTS OR N-OXIDES THEREOF AND THEIR USE AS HERBICIDALLY ACTIVE SUBSTANCES” (BayerAktiengesellschaft, priority 2021, published 2024)
